# According to PubChem BioAssay AID1963421 (Molecular Pharmacology Branch, DTP, NCI, 2024):
# Test system: 519858-162-T-J1-PDC complex spheroid growth, % test/control
# Experiment: Anticancer human tumor 519858-162-T-J1-PDC patient-derived colon adenocarcinoma cell line growth inhibition [Asc]
# Settings: for IC50: curve of first compound; for viability, T/C: stronger effect = lower value
# How it was run: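 Complex spheroids combining tumor cells with HUVEC endothelial cells and human MSCs, at 37 degrees C, 5% CO2; agents tested alone or combined, half-log dilutions from at or near clinical Cmax, or 10 microM if Cmax unknown.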
# 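Note: seven day drug exposure begun three days after spheroid seeding.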
# 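Throughout, for viability, T/C: 100% = DMSO vehicle wells and lower values mean less viable spheroid.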
structure (smiles),measurement,setting,value
C=C(F)C(=O)N1CCN(c2nc(OCC3CCCN3C)nc3c2CCN(c2cccc4cccc(Cl)c24)C3)CC1CC#N (centres undefined) + Cc1c(S(C)(=O)=O)c(-c2cc(F)cc(N3CCN(c4ccc(NS(=O)(=O)c5ccc(NC(CCN6CCC(C(=O)OCCCP(=O)(O)O)CC6)CSc6ccccc6)c(S(=O)(=O)C(F)(F)F)c5)cc4)CC3)c2)c(-c2ccc(Cl)cc2)n1C(C)C,IC50,second compound 0.0316 µM,< 0.0316 µM
same,IC50,second compound 0.1 µM,9.04 µM
same,IC50,second compound 0.316 µM,6.37 µM
same,IC50,second compound 1 µM,5.09 µM
same,IC50,second compound 3.16 µM,2.51 µM
same,IC50,second compound 10 µM,2.69 µM
same,"viability, T/C","second compound 0.0316 µM, first compound 0.0316 µM",43.8%
same,"viability, T/C","second compound 0.0316 µM, first compound 0.1 µM",78.2%
same,"viability, T/C","second compound 0.0316 µM, first compound 0.316 µM",94.3%
same,"viability, T/C","second compound 0.0316 µM, first compound 1 µM",98.9%
same,"viability, T/C","second compound 0.0316 µM, first compound 3.16 µM",82.6%
same,"viability, T/C","second compound 0.0316 µM, first compound 10 µM",64.9%
same,"viability, T/C","second compound 0.1 µM, first compound 0.0316 µM",115%
same,"viability, T/C","second compound 0.1 µM, first compound 0.1 µM",111%
same,"viability, T/C","second compound 0.1 µM, first compound 0.316 µM",103%
same,"viability, T/C","second compound 0.1 µM, first compound 1 µM",89%
same,"viability, T/C","second compound 0.1 µM, first compound 3.16 µM",84.8%
same,"viability, T/C","second compound 0.1 µM, first compound 10 µM",45.3%
same,"viability, T/C","second compound 0.316 µM, first compound 0.0316 µM",95.9%
same,"viability, T/C","second compound 0.316 µM, first compound 0.1 µM",102%
same,"viability, T/C","second compound 0.316 µM, first compound 0.316 µM",88%
same,"viability, T/C","second compound 0.316 µM, first compound 1 µM",70.2%
same,"viability, T/C","second compound 0.316 µM, first compound 3.16 µM",61.9%
same,"viability, T/C","second compound 0.316 µM, first compound 10 µM",43.5%
same,"viability, T/C","second compound 1 µM, first compound 0.0316 µM",102%
same,"viability, T/C","second compound 1 µM, first compound 0.1 µM",84.7%
same,"viability, T/C","second compound 1 µM, first compound 0.316 µM",116%
same,"viability, T/C","second compound 1 µM, first compound 1 µM",86.5%
same,"viability, T/C","second compound 1 µM, first compound 3.16 µM",62.8%
same,"viability, T/C","second compound 1 µM, first compound 10 µM",33.2%
same,"viability, T/C","second compound 3.16 µM, first compound 0.0316 µM",86.9%
same,"viability, T/C","second compound 3.16 µM, first compound 0.1 µM",74.1%
same,"viability, T/C","second compound 3.16 µM, first compound 0.316 µM",81.8%
same,"viability, T/C","second compound 3.16 µM, first compound 1 µM",61.1%
same,"viability, T/C","second compound 3.16 µM, first compound 3.16 µM",47.9%
same,"viability, T/C","second compound 3.16 µM, first compound 10 µM",13.5%
same,"viability, T/C","second compound 10 µM, first compound 0.0316 µM",86.7%
same,"viability, T/C","second compound 10 µM, first compound 0.1 µM",66.5%
same,"viability, T/C","second compound 10 µM, first compound 0.316 µM",72.4%
same,"viability, T/C","second compound 10 µM, first compound 1 µM",62.3%
same,"viability, T/C","second compound 10 µM, first compound 3.16 µM",51.4%
same,"viability, T/C","second compound 10 µM, first compound 10 µM",3.12%
CCN1C(C(=O)NC23CCC(C(=O)O)(CC2)CC3)C(c2cccc(Cl)c2F)C2(C(=O)Nc3cc(Cl)ccc32)C12CCCCC2 (centres undefined) + Cc1c(S(C)(=O)=O)c(-c2cc(F)cc(N3CCN(c4ccc(NS(=O)(=O)c5ccc(NC(CCN6CCC(C(=O)OCCCP(=O)(O)O)CC6)CSc6ccccc6)c(S(=O)(=O)C(F)(F)F)c5)cc4)CC3)c2)c(-c2ccc(Cl)cc2)n1C(C)C,IC50,second compound 0.0316 µM,> 3 µM
same,IC50,second compound 0.1 µM,> 3 µM
same,IC50,second compound 0.316 µM,> 3 µM
same,IC50,second compound 1 µM,> 3 µM
same,IC50,second compound 3.16 µM,> 3 µM
same,IC50,second compound 10 µM,0.748 µM
same,"viability, T/C","second compound 0.0316 µM, first compound 0.00949 µM",74.8%
same,"viability, T/C","second compound 0.0316 µM, first compound 0.03 µM",50%
same,"viability, T/C","second compound 0.0316 µM, first compound 0.0949 µM",76.3%
same,"viability, T/C","second compound 0.0316 µM, first compound 0.3 µM",79.4%
same,"viability, T/C","second compound 0.0316 µM, first compound 0.949 µM",61.8%
same,"viability, T/C","second compound 0.0316 µM, first compound 3 µM",79.5%
same,"viability, T/C","second compound 0.1 µM, first compound 0.00949 µM",83.2%
same,"viability, T/C","second compound 0.1 µM, first compound 0.03 µM",104%
same,"viability, T/C","second compound 0.1 µM, first compound 0.0949 µM",84%
same,"viability, T/C","second compound 0.1 µM, first compound 0.3 µM",87.6%
same,"viability, T/C","second compound 0.1 µM, first compound 0.949 µM",55.4%
same,"viability, T/C","second compound 0.1 µM, first compound 3 µM",71%
same,"viability, T/C","second compound 0.316 µM, first compound 0.00949 µM",80.8%
same,"viability, T/C","second compound 0.316 µM, first compound 0.03 µM",95.1%
same,"viability, T/C","second compound 0.316 µM, first compound 0.0949 µM",84.9%
same,"viability, T/C","second compound 0.316 µM, first compound 0.3 µM",78%
same,"viability, T/C","second compound 0.316 µM, first compound 0.949 µM",65.7%
same,"viability, T/C","second compound 0.316 µM, first compound 3 µM",54.1%
same,"viability, T/C","second compound 1 µM, first compound 0.00949 µM",67.7%
same,"viability, T/C","second compound 1 µM, first compound 0.03 µM",69.4%
same,"viability, T/C","second compound 1 µM, first compound 0.0949 µM",75.5%
same,"viability, T/C","second compound 1 µM, first compound 0.3 µM",56%
same,"viability, T/C","second compound 1 µM, first compound 0.949 µM",93.4%
same,"viability, T/C","second compound 1 µM, first compound 3 µM",49.8%
same,"viability, T/C","second compound 3.16 µM, first compound 0.00949 µM",57.5%
same,"viability, T/C","second compound 3.16 µM, first compound 0.03 µM",56.8%
same,"viability, T/C","second compound 3.16 µM, first compound 0.0949 µM",73.6%
same,"viability, T/C","second compound 3.16 µM, first compound 0.3 µM",46.8%
same,"viability, T/C","second compound 3.16 µM, first compound 0.949 µM",49.3%
same,"viability, T/C","second compound 3.16 µM, first compound 3 µM",60.9%
same,"viability, T/C","second compound 10 µM, first compound 0.00949 µM",55.2%
same,"viability, T/C","second compound 10 µM, first compound 0.03 µM",65.4%
same,"viability, T/C","second compound 10 µM, first compound 0.0949 µM",30.6%
same,"viability, T/C","second compound 10 µM, first compound 0.3 µM",71.8%
same,"viability, T/C","second compound 10 µM, first compound 0.949 µM",43.1%
same,"viability, T/C","second compound 10 µM, first compound 3 µM",36.7%
